According to patent EP4617278A1, “NUCLEOTIDE ANALOG, AND COMPOSITION AND USE THEREOF” (priority 2022, dated 2024):

System: SARS-CoV-2 replicon
Format: cell-based
Conditions: read-out: SARS-CoV-2 Replicon (Huh-7cell) EC50

Row | SMILES | EC50
1 | CCCCC/C=C\C/C=C\CCCCCCCCOC(=O)[C@H](C)NP(=O)(OCOC(=O)C(C)(C)C)OC[C@H]1O[C@@](C#N)(c2ccc3c(N)ncnn23)[C@H](OC(=O)C(C)C)[C@@H]1OC(=O)C(C)C (stereo partly drawn) [Compound 51, (2R,3R,4R,5R)-2-(4-aminopyrrolo[2,1-f][1,2,4]triazin-7-yl)-2-cyano-5-((((((S)-1-(((9Z,12Z)-octadeca-9,12-dien-1-yl)oxy)-1-oxopropan-2-yl)amino)((pivaloyloxy)methoxy)phosphoryl)oxy)methyl)tetrahydrofuran-3,4-diyl bis(2-methylpropionate)] | 0.05 to 0.5 µM
2 | CCCCC/C=C\C/C=C\CCCCCCCCOC(=O)[C@H](C)N[P@](=O)(OCOC(=O)OC(C)C)OC[C@H]1O[C@@](C#N)(c2ccc3c(N)ncnn23)[C@H](OC(=O)C(C)C)[C@@H]1OC(=O)C(C)C [Compound 52a, (2R,3R,4R,5R)-2-(4-aminopyrrolo[2,1-f][1,2,4]triazin-7-yl)-2-cyano-5-((((R)-(((isopropoxycarbonyl)oxy)methoxy)(((S)-1-(((9Z,12Z)-octadeca-9,12-dien-1-yl)oxy)-1-oxopropan-2-yl)amino)phosphoryl)oxy)methyl)tetrahydrofuran-3,4-diyl bis(2-methylpropionate)] | 0.05 to 0.5 µM
3 | CCCCC/C=C\C/C=C\CCCCCCCCOC(=O)[C@H](C)N[P@@](=O)(OCOC(=O)OC(C)C)OC[C@H]1O[C@@](C#N)(c2ccc3c(N)ncnn23)[C@H](OC(=O)C(C)C)[C@@H]1OC(=O)C(C)C [Compound 52b, (2R,3R,4R,5R)-2-(4-aminopyrrolo[2,1-f][1,2,4]triazin-7-yl)-2-cyano-5-((((S)-(((isopropoxycarbonyl)oxy)methoxy)(((S)-1-(((9Z,12Z)-octadeca-9,12-dien-1-yl)oxy)-1-oxopropan-2-yl)amino)phosphoryl)oxy)methyl)tetrahydrofuran-3,4-diyl bis(2-methylpropionate)] | 0.05 to 0.5 µM
4 | CCC(CC)COC(=O)[C@H](Cc1ccccc1)N[P@@](=O)(OC[C@H]1O[C@@](C#N)(c2ccc3c(N)ncnn23)[C@H](OC(=O)C(C)C)[C@@H]1OC(=O)C(C)C)Oc1ccc(C(C)(C)C)cc1 [Compound 53a, (2R,3R,4R,5R)-2-(4-aminopyrrolo[2,1-f][1,2,4]triazin-7-yl)-2-cyano-5-((((((S)-1-(2-ethylbutoxy)-1-oxo-3-phenylpropan-2-yl)amino)((R)-4-tert-butylphenoxy)phosphoryl)oxy)methyl)tetrahydrofuran-3,4-diyl bis(2-methylpropionate)] | 0.05 to 0.5 µM
5 | CCC(CC)COC(=O)[C@H](Cc1ccccc1)N[P@](=O)(OC[C@H]1O[C@@](C#N)(c2ccc3c(N)ncnn23)[C@H](OC(=O)C(C)C)[C@@H]1OC(=O)C(C)C)Oc1ccc(C(C)(C)C)cc1 [Compound 53b, (2R,3R,4R,5R)-2-(4-aminopyrrolo[2,1-f][1,2,4]triazin-7-yl)-2-cyano-5-((((((S)-1-(2-ethylbutoxy)-1-oxo-3-phenylpropan-2-yl)amino)((S)-4-tert-butylphenoxy)phosphoryl)oxy)methyl)tetrahydrofuran-3,4-diyl bis(2-methylpropionate)] | 0.01 to 0.05 µM
6 | CC(C)C(=O)O[C@H]1[C@@H](OC(=O)C(C)C)[C@](C#N)(c2ccc3c(N)ncnn23)O[C@@H]1CO[P@](=O)(N[C@@H](CC(=O)OC1CCC1)C(=O)OC1CCC1)Oc1ccccc1 [Compound 54a, (2R,3R,4R,5R)-2-(4-aminopyrrolo[2,1-f][1,2,4]triazin-7-yl)-2-cyano-5-((((R)-(((S)-1,4-dicyclobutoxy-1,4-dioxobutan-2-yl)amino)(phenoxy)phosphoryl)oxy)methyl)tetrahydrofuran-3,4-diyl bis(2-methylpropionate)] | 0.01 to 0.05 µM
